Experimental data published in PMC2804440 (Neuron, 2009).

Tests used:
[1] = target: T1, LGC-55 (Caenorhabditis elegans, UniProt G5EEC1); test: two-electrode voltage clamp, Xenopus oocytes; assay type: cell-based
T1 sequence (G5EEC1 17-538): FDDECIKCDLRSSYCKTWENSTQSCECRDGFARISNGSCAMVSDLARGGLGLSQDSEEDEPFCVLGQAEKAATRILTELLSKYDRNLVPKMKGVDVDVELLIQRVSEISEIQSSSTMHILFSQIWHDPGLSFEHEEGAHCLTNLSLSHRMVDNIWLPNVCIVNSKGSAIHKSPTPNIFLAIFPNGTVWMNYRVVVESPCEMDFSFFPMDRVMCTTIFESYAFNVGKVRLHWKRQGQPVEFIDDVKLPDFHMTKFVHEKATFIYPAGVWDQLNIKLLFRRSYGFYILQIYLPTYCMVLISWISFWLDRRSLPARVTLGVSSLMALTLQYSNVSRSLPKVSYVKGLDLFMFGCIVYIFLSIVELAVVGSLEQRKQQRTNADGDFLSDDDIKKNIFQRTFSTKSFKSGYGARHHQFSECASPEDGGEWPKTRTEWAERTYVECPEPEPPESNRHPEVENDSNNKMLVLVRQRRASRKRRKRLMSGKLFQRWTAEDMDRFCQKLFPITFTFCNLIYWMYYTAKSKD

[2] = target: T1, LGC-55; test: two-electrode voltage clamp, Xenopus oocytes; assay type: cell-based; conditions: weak agonist; ND96, -60 mV, 10 s application, 22-24 °C

| Structure (SMILES) | EC50 [1] | small inward currents at millimolar concentrations [2] |
| --- | --- | --- |
| NC[C@H](O)c1ccc(O)cc1 [octopamine] | 215.2 ± 1.1 µM |  |
| NCCc1ccc(O)c(O)c1 [dopamine] | 158.8 ± 1.1 µM |  |
| NCCc1c[nH]c2ccc(O)cc12 [serotonin] |  | serotonin only elicited small LGC-55-dependent inward currents at millimolar concentrations |
| NCCc1ccc(O)cc1 [tyramine] | 12.1 ± 1.2 µM |  |
